From patent US6310081A, “Biphenyl sulfonyl aryl carboxylic acids useful in the treatment of insulin resistance and hyperglycemia” (American Home Products Corporation, priority 2001, dated 2001)

Legend:
[1] = system: diabetic (ob/ob) mice; experiment: blood glucose lowering activity in diabetic (ob/ob) mice; format: in vivo, mouse (ob/ob, C57 B1/6J); conditions: positive control, 100 mg/kg/day
Description: The procedures used and results obtained are briefly described below.
The no -insulin dependent diabetic (NIDDM) syndrome can be typically characterizes by obesity, hyperglycemia, abnormal insulin secretion, hyperinsulinemia and insulin resistance.
In each test procedure, mice [Male or female ob/ob (C57 B1/6J) and their lean litermates (ob/+ or +/+, Jackson Laboratories) ages 2 to 5 months (10 to 65 g)] of a similar age were randomized according to body weight into 4 groups of 10 mice. The mice were housed 5 per cage and are maintained on normal rodent chow with water ad libitum. Mice received test compound daily by gavage (suspended in 0.5 ml of 0.5% methyl cellulose); dissolved in the drinking water; or admixed in the diet. The dose of compounds given ranges from 2.5 to 200 mg/kg body weight/day. The dose is calculated based on the fed weekly body weight and is expressed as active moiety. […] Control mice received vehicle only.
On the morning of Day 4, 7 or 14 two drops of blood (approximetly 50 ul) were collected into sodium fluoride containing tubes either from the tail vein or after decapitation. […] The plasma was isolated by centrifugation and the concentration of glucose is measured enzymatically on an Abbott V.P. Analyzer.
For each mouse, the percentage change in plasma glucose on Day 4, 7 or 14 is calculated relative to the mean plasma glucose of the vehicle treated mice. […]

[2] = molecular target: T1, hPTP1B (Homo sapiens, UniProt P18031); experiment: Inhibition of Tri-Phosphorylated Insulin Receptor Dodecaphosphopeptide Dephosphorylation by hPTP1B; format: biochemical
T1 construct: made in house
T1 sequence (P18031 1-435): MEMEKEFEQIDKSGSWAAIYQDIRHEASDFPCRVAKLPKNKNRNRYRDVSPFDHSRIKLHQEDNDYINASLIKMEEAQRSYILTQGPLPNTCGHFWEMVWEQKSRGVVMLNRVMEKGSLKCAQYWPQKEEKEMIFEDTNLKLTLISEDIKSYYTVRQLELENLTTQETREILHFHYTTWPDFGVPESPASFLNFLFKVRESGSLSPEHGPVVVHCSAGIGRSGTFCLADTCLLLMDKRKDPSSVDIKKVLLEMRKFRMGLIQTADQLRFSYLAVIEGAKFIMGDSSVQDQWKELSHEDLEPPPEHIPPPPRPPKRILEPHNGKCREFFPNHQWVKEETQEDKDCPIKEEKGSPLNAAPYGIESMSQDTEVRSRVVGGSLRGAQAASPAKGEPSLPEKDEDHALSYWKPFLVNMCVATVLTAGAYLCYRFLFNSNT

Row | Structure (SMILES) | plasma glucose lowering (in words) [1] | IC50 [2] [nM]
1 | CC1(COc2ccc(CC3SC(=O)NC3=O)cc2)CCCCC1 (centres unmarked) [Ciglitazone, 5-(4-(1-methylcyclohexylmethoxy)benzyl)-2,4-dione] | significant lowering in plasma glucose | –
2 | Cc1oc(-c2ccc(C(F)(F)F)cc2)nc1-c1ccc(-c2ccc(OS(=O)(=O)c3ccc(C(=O)O)c(O)c3)cc2)cc1 [Example 14] | – | 193
